Reference: ChEMBL document CHEMBL4257221, “Peptides comprising non-natural amino acids and methods of making and using the same” (2016)
pEC50: −log10 of the molar value. Blank lines part the entries; values can stand above or below the compound they belong to. Active and inactive are the calls of the source. The rule behind the calls is not given here. Numbered stars: 1 amine (or outer) side, 2 acyl side, 3 side chain; on linkers, the order of the positions; unused ones are H or OH. Square brackets hold non-standard residues; d marks the D form. Peptide text beside a SMILES is read from it. ξ: configuration not given here. X1 = O=C([C@H]1CCC[C@@H]1N[*:1])[*:2]; X2 = O=C([C@H]1CNC[C@@H]1N[*:1])[*:2]; ξβ3hQ = NC(=O)CCC(N)CC(=O)O; ξβ3hN = NC(=O)CC(N)CC(=O)O; ξβ3hL = CC(C)CC(N)CC(=O)O; ξβ3hK = NCCCCC(N)CC(=O)O; ξβ3hT = CC(O)C(N)CC(=O)O; ξβ3hV = CC(C)C(N)CC(=O)O; ξβ3hS = NC(CO)CC(=O)O; βAla = NCCC(=O)O

How the values were obtained:
Mus musculus [1] = test: (§1) Anti-parkinson's activity in MPTP-induced C57BL/6 mouse model of Parkinson's disease receiving adaptive transfer of splenocytes from 15 ug/day/5 days, ip compound treated donor mouse assessed as TH-positive neurons survival rate in substantia nigra measured on day 7 post MPTP intoxication by FJ-C staining based assay (reference value: 24.5%); type: functional
Mus musculus [2] = test: as §1, with “nigra at 15 ug/day, ip for 5 days” for “nigra”, “relative to control” for “(reference value: 24.5%)”; type: functional
Mus musculus [3] = test: Stimulation of Treg cells function in C57BL/6 mouse splenocytes assessed as suppression of anti-CD3-stimulated effector T cell proliferation pretreated ip daily for 5 days followed by splenocytes isolation and co-culture with untreated splenocytes at 1:1 ratio; type: functional, organism-based
Mus musculus [4] = test: Stimulation of Treg cells function in C57BL/6 mouse splenocytes assessed as suppression of anti-CD3-stimulated CD4+/CD25- naive T cells proliferation at 300 ug, ip pretreated daily for 5 days followed by splenocytes isolation and co-culture with CD4+/CD25- naive T cells; type: functional, organism-based
Proteinase K = Proteinase K (Engyodontium album, UniProt P06873); test: Stability of the compound assessed as Tritirachium album proteinase K-mediated compound hydrolysis at 250 uM by HPLC analysis; type: ADME; settings: parengyodontium album
Sequence of Proteinase K (P06873 whole entry): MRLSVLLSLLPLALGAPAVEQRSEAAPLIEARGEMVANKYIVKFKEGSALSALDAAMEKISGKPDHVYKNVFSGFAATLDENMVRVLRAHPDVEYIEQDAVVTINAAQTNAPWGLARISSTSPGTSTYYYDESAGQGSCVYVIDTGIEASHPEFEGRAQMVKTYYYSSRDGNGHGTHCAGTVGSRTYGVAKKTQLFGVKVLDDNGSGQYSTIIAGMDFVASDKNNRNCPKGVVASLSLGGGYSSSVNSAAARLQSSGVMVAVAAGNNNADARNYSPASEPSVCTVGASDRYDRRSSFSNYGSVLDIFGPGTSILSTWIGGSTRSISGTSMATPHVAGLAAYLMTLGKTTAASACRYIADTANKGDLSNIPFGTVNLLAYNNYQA

Dipeptidyl peptidase 4 = Dipeptidyl peptidase 4 (Homo sapiens, UniProt P27487); test: Stability of the compound assessed as DPP4 (unknown origin)-mediated compound hydrolysis at 250 uM by HPLC analysis; type: ADME
Sequence of Dipeptidyl peptidase 4 (P27487 whole entry): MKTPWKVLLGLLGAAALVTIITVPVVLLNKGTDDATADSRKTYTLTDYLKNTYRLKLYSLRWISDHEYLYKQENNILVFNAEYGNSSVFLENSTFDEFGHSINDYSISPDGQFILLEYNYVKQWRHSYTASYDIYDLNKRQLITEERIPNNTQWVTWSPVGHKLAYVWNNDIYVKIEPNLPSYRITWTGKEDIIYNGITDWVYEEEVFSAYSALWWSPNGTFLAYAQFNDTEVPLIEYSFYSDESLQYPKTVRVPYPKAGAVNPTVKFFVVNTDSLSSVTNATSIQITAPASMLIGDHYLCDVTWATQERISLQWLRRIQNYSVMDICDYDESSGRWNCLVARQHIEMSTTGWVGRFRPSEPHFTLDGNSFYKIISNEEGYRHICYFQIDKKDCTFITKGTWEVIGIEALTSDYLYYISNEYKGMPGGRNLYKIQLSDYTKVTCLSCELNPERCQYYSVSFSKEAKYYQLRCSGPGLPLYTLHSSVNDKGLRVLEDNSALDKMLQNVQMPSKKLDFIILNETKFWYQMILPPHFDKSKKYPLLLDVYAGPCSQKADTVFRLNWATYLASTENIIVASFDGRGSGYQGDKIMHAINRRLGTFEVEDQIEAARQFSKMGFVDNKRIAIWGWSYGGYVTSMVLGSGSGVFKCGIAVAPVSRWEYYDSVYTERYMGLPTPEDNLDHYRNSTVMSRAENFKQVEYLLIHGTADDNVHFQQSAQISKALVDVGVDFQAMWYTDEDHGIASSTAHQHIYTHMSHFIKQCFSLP

Chymotrypsin = Chymotrypsin (Homo sapiens, UniProt Q99895+P17538+P40313+Q6GPI1); test: Stability of the compound assessed as chymotrypsin (unknown origin)-mediated compound hydrolysis at 250 uM by HPLC analysis; type: ADME
[5] = biological target: T1, Vasoactive intestinal polypeptide receptor 1 (Homo sapiens, UniProt P32241); test: Agonist activity at human VIPR1 expressed in CHOK1 cells assessed as intracellular cAMP accumulation after 60 mins by PathHunter assay; type: functional, cell-based
T1 sequence (P32241 whole entry): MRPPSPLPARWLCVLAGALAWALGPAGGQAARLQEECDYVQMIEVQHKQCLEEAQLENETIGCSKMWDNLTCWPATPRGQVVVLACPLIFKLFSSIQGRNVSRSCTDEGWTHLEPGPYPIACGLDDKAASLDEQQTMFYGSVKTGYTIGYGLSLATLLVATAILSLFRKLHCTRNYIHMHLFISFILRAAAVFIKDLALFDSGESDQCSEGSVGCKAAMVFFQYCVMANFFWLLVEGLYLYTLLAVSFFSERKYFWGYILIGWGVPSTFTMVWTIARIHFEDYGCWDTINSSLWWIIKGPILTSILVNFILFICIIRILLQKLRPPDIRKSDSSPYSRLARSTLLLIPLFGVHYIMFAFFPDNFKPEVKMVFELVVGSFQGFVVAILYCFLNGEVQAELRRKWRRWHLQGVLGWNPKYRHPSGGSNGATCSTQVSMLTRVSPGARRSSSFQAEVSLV

[6] = biological target: T2, Vasoactive intestinal polypeptide receptor 2 (Homo sapiens, UniProt P41587); test: Agonist activity at human VIPR2 expressed in CHOK1 cells assessed as intracellular cAMP accumulation after 60 mins by PathHunter assay; type: functional, cell-based
T2 sequence (P41587 whole entry): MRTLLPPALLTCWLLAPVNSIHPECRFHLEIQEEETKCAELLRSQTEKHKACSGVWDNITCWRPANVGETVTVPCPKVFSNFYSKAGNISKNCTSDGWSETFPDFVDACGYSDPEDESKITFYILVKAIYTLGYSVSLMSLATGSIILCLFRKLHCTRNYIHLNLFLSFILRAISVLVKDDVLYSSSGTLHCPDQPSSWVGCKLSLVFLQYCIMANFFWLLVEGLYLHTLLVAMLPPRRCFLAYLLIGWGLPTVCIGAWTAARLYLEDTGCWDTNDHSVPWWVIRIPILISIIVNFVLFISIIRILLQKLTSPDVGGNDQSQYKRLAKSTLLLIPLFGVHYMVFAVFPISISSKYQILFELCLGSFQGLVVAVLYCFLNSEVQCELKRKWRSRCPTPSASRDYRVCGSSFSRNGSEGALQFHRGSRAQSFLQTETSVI

[7] = biological target: T1, Vasoactive intestinal polypeptide receptor 1; test: Induction of VIPR1 receptor internalization in CHOK1 cells expressing human VIPR1 by beta-galactosidase reporter gene assay; type: functional, cell-based

SMILES: CC[C@H](C)[C@H](NC(=O)C1CCCN1C(=O)[C@H](CCC(N)=O)NC(=O)[C@H](CC(C)C)NC(=O)[C@H](Cc1ccc(O)cc1)NC(=O)[C@H](CCCCN)NC(=O)[C@H](CCCCN)NC(=O)[C@H](C)NC(=O)C1CCCN1C(=O)[C@@H](NC(=O)[C@H](CCC(N)=O)NC(=O)C1CCCN1C(=O)[C@H](CCCNC(=N)N)NC(=O)[C@H](CC(C)C)NC(=O)[C@H](CCCNC(=N)N)NC(=O)[C@@H](NC(=O)[C@H](Cc1ccc(O)cc1)NC(=O)[C@H](CC(N)=O)NC(=O)[C@H](CC(=O)O)NC(=O)[C@@H](NC(=O)[C@H](Cc1ccccc1)NC(=O)[C@@H](NC(=O)[C@H](C)NC(=O)[C@H](CC(=O)O)NC(=O)[C@H](CO)NC(=O)[C@@H](N)Cc1cnc[nH]1)C(C)C)[C@@H](C)O)[C@@H](C)O)C(C)C)C(=O)N[C@@H](CCCCN)C(=O)N[C@@H](CC(N)=O)C(=O)N[C@@H](CCCCN)C(=O)N[C@@H](CCCNC(=N)N)C(=O)N[C@@H](Cc1ccc(O)cc1)C(=O)O (stereo partly specified)
Survival (Mus musculus [1]): 50.2%
Survival (Mus musculus [2]): 69.1%
Activity (Mus musculus [3]): Dose-dependent effect
Activity (Mus musculus [4]): Active

Stability (Proteinase K): Stable
Stability (Dipeptidyl peptidase 4): Stable
Stability (Chymotrypsin): Stable
SMILES: CCCC[C@H](NC(=O)[C@H](CCC(N)=O)NC(=O)[C@H](CCCCN)NC(=O)[C@H](CCCNC(=N)N)NC(=O)[C@H](CC(C)C)NC(=O)[C@H](CCCCN)NC(=O)[C@@H](NC(=O)[C@H](Cc1ccc(O)cc1)NC(=O)[C@H](CC(N)=O)NC(=O)[C@H](CCC(=O)OC(=O)[C@H](C)NC(=O)[C@H](CC(=O)O)NC(=O)[C@H](CO)NC(=O)[C@H](Cc1c[nH]cn1)NC(C)=O)NC(=O)[C@@H](NC(=O)[C@H](Cc1ccccc1)NC(=O)[C@@H](N)C(C)C)[C@@H](C)O)[C@@H](C)O)C(=O)N[C@@H](C)C(=O)N[C@@H](C)C(=O)N[C@@H](CCCCN)C(=O)N[C@@H](CCCCN)C(=O)N[C@@H](Cc1ccc(O)cc1)C(=O)N[C@@H](CC(C)C)C(=O)N[C@@H](CC(N)=O)C(=O)NC(=O)[C@@H](NC(=O)CNC(=O)CNC(=O)[C@@H]1CCCCN[C@@H](CC(N)=O)C(=O)N[C@@H](CC(C)C)C(=O)N[C@@H](CCCCN)C(=O)N1)[C@@H](C)O

pEC50 [5]: 6.88
pEC50 [6]: 9.19
Stability (Proteinase K): Stable
Stability (Dipeptidyl peptidase 4): Stable
Stability (Chymotrypsin): Stable
SMILES: CC(=O)N[C@@H](Cc1cnc[nH]1)C(=O)N[C@H]1CCC[C@@H]1C(=O)N[C@@H](CC(=O)O)C(=O)N[C@@H](C)C(=O)N[C@H]1CCC[C@@H]1C(=O)N[C@@H](Cc1ccccc1)C(=O)N[C@H](C(=O)N[C@@H](CCC(=O)O)C(=O)N[C@@H](CC(N)=O)C(=O)N[C@@H](Cc1ccc(O)cc1)C(=O)N[C@H](C(=O)N[C@@H](CCCCN)C(=O)N[C@@H](CC(C)C)C(=O)N[C@@H](CCCNC(=N)N)C(=O)N[C@@H](CCCCN)C(=O)N[C@@H](CCC(N)=O)C(=O)N[C@@H](CC(C)C)C(=O)N[C@@H](C)C(=O)N[C@@H](C)C(=O)N[C@H]1CNC[C@@H]1C(=O)N[C@@H](CCCCN)C(=O)N[C@@H](Cc1ccc(O)cc1)C(=O)N[C@H]1CCC[C@@H]1C(=O)N[C@@H](CC(N)=O)C(=O)N[C@@H](CC(=O)O)C(=O)N[C@@H](CC(C)C)C(=O)NC(CCCCN)CC(=O)N[C@@H](CCCCN)C(=O)NCC(=O)NCCC(=O)N[C@H](C(=O)O)[C@@H](C)O)[C@@H](C)O)[C@@H](C)O (stereo partly drawn) (Ac-H[X1]DA[X1]FTENYTKLRKQLAA[X2]KY[X1]NDL[ξβ3hK]KG[βAla]T-OH)

SMILES: CC(=O)N[C@@H](Cc1cnc[nH]1)C(=O)N[C@H]1CCC[C@@H]1C(=O)N[C@@H](CC(=O)O)C(=O)N[C@@H](C)C(=O)N[C@H]1CCC[C@@H]1C(=O)N[C@@H](Cc1ccccc1)C(=O)N[C@H](C(=O)N[C@@H](CCC(=O)O)C(=O)N[C@@H](CC(N)=O)C(=O)N[C@@H](Cc1ccc(O)cc1)C(=O)N[C@H](C(=O)N[C@@H](CCCCN)C(=O)N[C@@H](CC(C)C)C(=O)N[C@@H](CCCNC(=N)N)C(=O)N[C@@H](CCCCN)C(=O)NC(CCC(N)=O)CC(=O)N[C@@H](CC(C)C)C(=O)N[C@@H](C)C(=O)N[C@@H](C)C(=O)N[C@H]1CNC[C@@H]1C(=O)N[C@@H](CCCCN)C(=O)N[C@@H](Cc1ccc(O)cc1)C(=O)N[C@H]1CCC[C@@H]1C(=O)N[C@@H](CC(N)=O)C(=O)N[C@@H](CC(=O)O)C(=O)N[C@@H](CC(C)C)C(=O)NC(CCCCN)CC(=O)N[C@@H](CCCCN)C(=O)NCC(=O)NCCC(=O)NC(CC(=O)O)C(C)O)[C@@H](C)O)[C@@H](C)O (stereo partly drawn) (Ac-H[X1]DA[X1]FTENYTKLRK[ξβ3hQ]LAA[X2]KY[X1]NDL[ξβ3hK]KG[βAla][ξβ3hT]-OH)
Survival (Mus musculus [1]): 79.7%
Activity (Mus musculus [3]): Dose-dependent effect
Activity (Mus musculus [4]): Active

pEC50 [5]: 8.66
pEC50 [7]: 7.99
SMILES: CC[C@H](C)[C@H](NC(=O)[C@H](C)NC(=O)[C@H](CC(N)=O)NC(=O)CC(CC(C)C)NC(=O)[C@H](Cc1ccc(O)cc1)NC(=O)[C@H](CCCCN)NC(=O)[C@H](CCCCN)NC(=O)CC(NC(=O)[C@H](C)NC(=O)[C@H](CC(C)C)NC(=O)[C@H](CCC(N)=O)NC(=O)CC(CCCCN)NC(=O)[C@H](CCCNC(=N)N)NC(=O)[C@H](CC(C)C)NC(=O)[C@H](CCCNC(=N)N)NC(=O)CC(NC(=O)[C@H](Cc1ccc(O)cc1)NC(=O)[C@H](CC(N)=O)NC(=O)[C@H](CC(=O)O)NC(=O)[C@@H](NC(=O)[C@H](Cc1ccccc1)NC(=O)[C@@H](NC(=O)[C@H](C)NC(=O)[C@H](CC(=O)O)NC(=O)[C@H](CO)NC(=O)[C@@H](N)Cc1cnc[nH]1)C(C)C)[C@@H](C)O)C(C)O)C(C)C)C(=O)NC(CC(=O)N[C@@H](CC(N)=O)C(=O)O)CC(C)C (stereo partly drawn) (H-HSDAVFTDNY[ξβ3hT]RLR[ξβ3hK]QLA[ξβ3hV]KKY[ξβ3hL]NAI[ξβ3hL]N-OH)

pEC50 [5]: 7.19
pEC50 [6]: 6.14
SMILES: CC[C@H](C)[C@H](NC(=O)[C@H](C)NC(=O)[C@H](CC(N)=O)NC(=O)CC(CC(C)C)NC(=O)[C@H](Cc1ccc(O)cc1)NC(=O)[C@H](CCCCN)NC(=O)[C@H](CCCCN)NC(=O)CC(NC(=O)[C@H](C)NC(=O)[C@H](CC(C)C)NC(=O)[C@H](CCC(N)=O)NC(=O)CC(CCCCN)NC(=O)[C@H](CCCNC(=N)N)NC(=O)[C@H](CC(C)C)NC(=O)[C@H](CCCNC(=N)N)NC(=O)CC(NC(=O)[C@H](Cc1ccc(O)cc1)NC(=O)[C@H](CC(N)=O)NC(=O)[C@H](CC(=O)O)NC(=O)[C@@H](NC(=O)[C@H](Cc1ccccc1)NC(=O)CC(NC(=O)[C@H](C)NC(=O)[C@H](CC(=O)O)NC(=O)CC(CO)NC(=O)[C@@H](N)Cc1cnc[nH]1)C(C)C)[C@@H](C)O)C(C)O)C(C)C)C(=O)NC(CC(=O)N[C@@H](CC(N)=O)C(=O)O)CC(C)C (stereo partly drawn) (H-H[ξβ3hS]DA[ξβ3hV]FTDNY[ξβ3hT]RLR[ξβ3hK]QLA[ξβ3hV]KKY[ξβ3hL]NAI[ξβ3hL]N-OH)

pEC50 [5]: 3.53
pEC50 [6]: 6.30
SMILES: CC[C@H](C)[C@H](NC(=O)[C@H](C)NC(=O)[C@H](CC(N)=O)NC(=O)CC(CC(C)C)NC(=O)[C@H](Cc1ccc(O)cc1)NC(=O)[C@H](CCCCN)NC(=O)[C@H](CCCCN)NC(=O)CC(NC(=O)[C@H](C)NC(=O)[C@H](CC(C)C)NC(=O)[C@H](CCC(N)=O)NC(=O)CC(CCCCN)NC(=O)[C@H](CCCNC(=N)N)NC(=O)[C@H](CC(C)C)NC(=O)[C@H](CCCNC(=N)N)NC(=O)CC(NC(=O)[C@H](Cc1ccc(O)cc1)NC(=O)CC(CC(N)=O)NC(=O)[C@H](CC(=O)O)NC(=O)[C@@H](NC(=O)[C@H](Cc1ccccc1)NC(=O)CC(NC(=O)[C@H](C)NC(=O)[C@H](CC(=O)O)NC(=O)CC(CO)NC(=O)[C@@H](N)Cc1cnc[nH]1)C(C)C)[C@@H](C)O)C(C)O)C(C)C)C(=O)NC(CC(=O)N[C@@H](CC(N)=O)C(=O)O)CC(C)C (stereo partly drawn) (H-H[ξβ3hS]DA[ξβ3hV]FTD[ξβ3hN]Y[ξβ3hT]RLR[ξβ3hK]QLA[ξβ3hV]KKY[ξβ3hL]NAI[ξβ3hL]N-OH)
